Literature values as cited in US20260014083A1, “Orally Administrable Pharmaceutical Dosage Form Comprising Lanthanum and Its Use in a Method Of Treatment of Hyperoxaluria” (AMGMT, priority 2022, published 2026).
Read-outs that look alike come from different tables or passages of the source.

Tests used:
[1] = in vivo
rat = conditions: oxalate loading
[2] = system: patients with enteric hyperoxaluria

## [Al] [aluminum]
In vivo
  calciuria: increased calciuria

## O=C([O-])[O-].[Ca+2] [calcium carbonate]
Current powerful phosphate binders
  calciuria: increased calciuria

## [La] [lanthanum]
[1]
  gastro-intestinal absorption: 0.01%

## O=C([O-])[O-].O=C([O-])[O-].O=C([O-])[O-].[La+3].[La+3] [Lanthanum carbonate, lanthanum carbonate]
rat
  CaOx crystalluria: decrease
  calciuria: minor increase
  oxaluria: decrease
  phosphaturia: striking increase

B1: reloxaliase: an oral enzyme therapeutic (Allena Pharmaceuticals) (protein, UniProt O34714 1-385, looked up)
Oxalate decarboxylase OxdC: MKKQNDIPQPIRGDKGATVKIPRNIERDRQNPDMLVPPETDHGTVSNMKFSFSDTHNRLEKGGYAREVTVRELPISENLASVNMRLKPGAIRELHWHKEAEWAYMIYGSARVTIVDEKGRSFIDDVGEGDLWYFPSGLPHSIQALEEGAEFLLVFDDGSFSENSTFQLTDWLAHTPKEVIAANFGVTKEEISNLPGKEKYIFENQLPGSLKDDIVEGPNGEVPYPFTYRLLEQEPIESEGGKVYIADSTNFKVSKTIASALVTVEPGAMRELHWHPNTHEWQYYISGKARMTVFASDGHARTFNYQAGDVGYVPFAMGHYVENIGDEPLVFLEIFKDDHYADVSLNQWLAMLPETFVQAHLDLGKDFTDVLSKEKHPVVKKKCSK
modifications: crosslinked enzyme crystals
[2]; versus placebo, p=0.004
  least square mean treatment difference: −14.3%
[2]; weeks 1-4, placebo 9.7%
  mean reduction in average 24-hour urinary oxalate excretion: 22.6%
